Measured values reported in ChEMBL document CHEMBL4622970, “Design, Synthesis, and Evaluation of New Quinazolinone Derivatives that Inhibit Bloom Syndrome Protein (BLM) Helicase, Trigger DNA Damage at the Telomere Region, and Synergize with PARP Inhibitors” (J Med Chem, 2020).
The source made the active and inactive calls. The rule behind the calls is not given here.

How the values were obtained:
[1] = target: T1, RecQ-like DNA helicase BLM (Homo sapiens, UniProt P54132); test: (§1) Inhibition of His-tagged BLM (642 to 1296 residues) (unknown origin) expressed in Escherichia coli BL21 (DE3) cells assessed as reduction in DNA unwinding activity using 5'-biotin-labeled forked DNA as substrate preincubated for 1 hr followed by substrate addition and measured after 1 hr by electrophoretic mobility shift assay
T1 sequence (P54132 whole entry, the tested form may be a part): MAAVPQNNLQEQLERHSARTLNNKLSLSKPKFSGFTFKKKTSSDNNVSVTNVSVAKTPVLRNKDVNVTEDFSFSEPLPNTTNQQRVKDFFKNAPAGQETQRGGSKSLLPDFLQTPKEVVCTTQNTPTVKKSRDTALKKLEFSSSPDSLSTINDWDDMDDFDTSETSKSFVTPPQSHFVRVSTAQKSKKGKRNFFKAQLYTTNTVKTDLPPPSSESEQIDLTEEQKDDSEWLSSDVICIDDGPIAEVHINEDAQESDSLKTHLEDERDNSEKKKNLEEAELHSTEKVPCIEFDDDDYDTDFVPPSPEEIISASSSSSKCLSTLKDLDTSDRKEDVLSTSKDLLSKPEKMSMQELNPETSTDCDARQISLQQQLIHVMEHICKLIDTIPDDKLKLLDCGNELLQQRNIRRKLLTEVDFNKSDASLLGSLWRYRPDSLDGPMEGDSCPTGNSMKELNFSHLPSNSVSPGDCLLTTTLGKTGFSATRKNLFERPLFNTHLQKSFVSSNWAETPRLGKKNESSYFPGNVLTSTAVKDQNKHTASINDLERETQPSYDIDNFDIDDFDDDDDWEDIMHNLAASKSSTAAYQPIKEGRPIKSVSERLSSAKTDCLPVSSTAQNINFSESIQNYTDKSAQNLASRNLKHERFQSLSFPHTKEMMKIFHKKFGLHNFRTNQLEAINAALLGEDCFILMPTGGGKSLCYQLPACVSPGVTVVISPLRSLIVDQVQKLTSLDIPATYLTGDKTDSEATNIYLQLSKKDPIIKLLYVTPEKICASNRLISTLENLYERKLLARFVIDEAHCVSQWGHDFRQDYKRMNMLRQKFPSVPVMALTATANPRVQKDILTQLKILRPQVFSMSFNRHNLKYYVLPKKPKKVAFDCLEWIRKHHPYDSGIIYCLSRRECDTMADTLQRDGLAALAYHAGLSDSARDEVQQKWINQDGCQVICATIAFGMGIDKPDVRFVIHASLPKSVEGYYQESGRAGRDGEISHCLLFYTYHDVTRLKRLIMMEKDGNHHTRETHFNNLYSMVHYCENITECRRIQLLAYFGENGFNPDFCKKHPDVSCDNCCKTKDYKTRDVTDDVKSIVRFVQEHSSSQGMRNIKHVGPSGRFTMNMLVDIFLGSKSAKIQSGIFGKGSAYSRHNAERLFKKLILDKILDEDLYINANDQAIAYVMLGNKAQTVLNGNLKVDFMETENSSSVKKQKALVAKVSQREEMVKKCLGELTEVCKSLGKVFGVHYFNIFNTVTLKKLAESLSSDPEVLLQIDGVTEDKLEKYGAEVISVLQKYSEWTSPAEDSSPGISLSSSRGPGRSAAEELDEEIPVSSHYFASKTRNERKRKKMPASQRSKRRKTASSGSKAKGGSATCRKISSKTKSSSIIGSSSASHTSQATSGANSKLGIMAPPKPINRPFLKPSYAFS

[2] = target: T1, RecQ-like DNA helicase BLM; test: as §1, with “activity at <10 uM” for “activity”
[3] = test system: HCT-116; test: Cytotoxicity against human HCT116 cells by MTT assay; type: functional, cell-based
[4] = target: T1, RecQ-like DNA helicase BLM; test: Inhibition of BLM in human HCT116 cells assessed as down regulation of HRR level at 0.5 uM measured after 24 hrs by luciferase reporter gene assay; type: cell-based; settings: HCT-116
[5] = target: T1, RecQ-like DNA helicase BLM; test: Inhibition of BLM in human HCT116 cells assessed as increase in gamma-H2AX level at 2 uM measured after 24 hrs by Western blot analysis; type: cell-based; settings: HCT-116
[6] = target: T1, RecQ-like DNA helicase BLM; test: Binding affinity to His-tagged BLM (642 to 1296 residues) (unknown origin) expressed in Escherichia coli BL21 (DE3) cells assessed as inhibition of protein interaction with 5'-biotin-labeled forked DNA measured after 1 hr by ELISA
[7] = target: T1, RecQ-like DNA helicase BLM; test: Binding affinity to wild-type His-tagged BLM (642 to 1296 residues) (unknown origin) expressed in Escherichia coli BL21 (DE3) cells by isothermal calorimetric titration assay
[8] = test system: RecQ-like DNA helicase BLM (Homo sapiens), P54132 [H996A]; test: Binding affinity to His-tagged BLM H996A mutant (unknown origin) expressed in Escherichia coli BL21 (DE3) cells by isothermal calorimetric titration assay
Chain of RecQ-like DNA helicase BLM (Homo sapiens), P54132 [H996A] (P54132 whole entry H996A): as the sequence (P54132 whole entry, the tested form may be a part) above, with H996A counted along it

[9] = test system: RecQ-like DNA helicase BLM (Homo sapiens), P54132 [I1168A]; test: Binding affinity to His-tagged BLM I1168A mutant (unknown origin) expressed in Escherichia coli BL21 (DE3) cells by isothermal calorimetric titration assay
Chain of RecQ-like DNA helicase BLM (Homo sapiens), P54132 [I1168A] (P54132 whole entry I1168A): as the sequence (P54132 whole entry, the tested form may be a part) above, with I1168A counted along it

[10] = target: T1, RecQ-like DNA helicase BLM; test: Binding affinity to BLM in human HCT116 cells cotransfected with DSB model and I-SceI plasmid assessed as reduction in recruitment of protein to DSB site in DNA at 1 uM measured after 24 hrs by chromatin immunoprecipitation assay; type: cell-based; settings: HCT-116
[11] = target: T1, RecQ-like DNA helicase BLM; test: Binding affinity to BLM in human HCT116 cells cotransfected with DSB model and I-SceI plasmid assessed as reduction in recruitment of protein to DNA region distant from DSB site at 1 uM measured after 24 hrs by chromatin immunoprecipitation assay; type: cell-based; settings: HCT-116
[12] = target: T1, RecQ-like DNA helicase BLM; test: Inhibition of BLM in human HCT116 cells assessed as potentiation of niraparib-induced cytotoxicity at 1 to 2 uM measured after 48 hrs by MTT assay; type: cell-based; settings: HCT-116
[13] = target: T1, RecQ-like DNA helicase BLM; test: Inhibition of BLM in human HCT116 cells assessed as potentiation of olaparib-induced cytotoxicity at 1 to 2 uM measured after 48 hrs by MTT assay; type: cell-based; settings: HCT-116

SMILES	IC50 [1]	Inhibition (active/not active) [2]	also measured
CCNc1cc2nc(/C=C/c3ccc(C(C)C)cc3)n(CC)c(=O)c2cc1F		inactive	
CCN(CC)CCNc1cc2nc3n(c(=O)c2cc1F)CCC3Cc1ccc(C(C)C)cc1 (centres undefined)	> 10 µM	Active	
CCc1ccc(/C=C2\CCc3c2nc2ccccc2c3NCCCN(CC)CC)cc1	> 10 µM	Active	
CCN(CC)CCNc1cc2nc3n(c(=O)c2cc1F)CC/C3=C\c1ccc(OC)cc1		inactive	
CCN(CC)CCNc1cc2nc3n(c(=O)c2cc1F)CC/C3=C\c1ccc(N(C)C)cc1	> 10 µM	Active	
CCN(CC)CCNc1cc2nc3n(c(=O)c2cc1F)CCC/C3=C\c1ccc(C(C)C)cc1	> 10 µM	Active	
CCN(CC)CCCNc1cc2nc(/C=C/c3ccc(C(C)C)cc3)n(C)c(=O)c2cc1F	4.7 µM		
CCN(CC)CCCNc1c2c(nc3ccccc13)/C(=C/c1ccc(CC(C)C)cc1)CC2	> 10 µM	Active	
CCN(CC)CCCNc1cc2nc3n(c(=O)c2cc1F)CC/C3=C\c1ccccc1		inactive	
CCN(CC)CCNc1cc2nc3c(cc2cc1F)CC/C3=C\c1ccc(C(C)C)cc1	> 10 µM	Active	
CCN(CC)CCNc1cc2nc3n(c(=O)c2cc1F)CC/C3=C\c1ccc(N(C)C)cc1O	6.4 µM		
CCN(CC)CCCNc1cc2nc(/C=C/c3ccc(C(C)C)cc3)[nH]c(=O)c2cc1F	> 10 µM	Active	
CCN(CC)CCCNc1c2c(nc3ccccc13)/C(=C/c1ccc(C(C)C)cc1)CC2	8.7 µM		
CCN(CC)CCNc1cc2nc3n(c(=O)c2cc1F)CC/C3=C\c1cccs1		inactive	
CCOCCNc1cc2nc3n(c(=O)c2cc1F)CC/C3=C\c1ccc(C(C)C)cc1	> 10 µM	Active	
CC(C)c1ccc(/C=C2\CCc3c2nc2ccccc2c3NCCCN(C)C)cc1	> 10 µM	Active	
CCN(CC)CCCNc1cc2nc(/C=C/c3ccc(CC(C)C)cc3)[nH]c(=O)c2cc1F	4.7 µM		
CCN(CC)CCNc1cc2nc3n(c(=O)c2cc1F)CCC3Cc1ccc(C(C)(C)C)cc1 (centres undefined)	> 10 µM	Active	
CCN(CC)CCNc1cc2nc3n(c(=O)c2cc1F)CCC3Cc1ccc(N(C)C)cc1 (centres undefined)	> 10 µM	Active	
CCN(CC)CCCNc1c2c(nc3ccccc13)/C(=C/c1ccc(C(C)(C)C)cc1)CC2		inactive	
CC(C)CCNc1cc2nc3n(c(=O)c2cc1F)CC/C3=C\c1ccc(C(C)C)cc1		inactive	
CCN(CC)CCNc1cc2nc3n(c(=O)c2cc1F)CC/C3=C\c1ccccc1		inactive	
CC(=O)NCCNc1cc2nc3n(c(=O)c2cc1F)CC/C3=C\c1ccc(C(C)C)cc1	> 10 µM	Active	
CCN(CC)CCNc1cc2nc3n(c(=O)c2cc1F)CCC3Cc1ccc(C(C)C)cc1O (centres undefined)	> 10 µM	Active	
CCN(CC)CCNc1cc2nc3n(c(=O)c2cc1F)CCC3Cc1ccc(CC(C)C)cc1 (centres undefined)	> 10 µM	Active	
CCN(CC)CCNc1cc2nc3n(c(=O)c2cc1F)CCC3Cc1ccc(N(CC)CC)cc1O (centres undefined)		inactive	
CCN(CC)CCNc1cc2nc3n(c(=O)c2cc1F)CC/C3=C\c1ccc(O)c(O)c1	> 10 µM	Active	
CCN(CC)CCNc1cc2nc3n(c(=O)c2cc1F)CC/C3=C\c1ccc(O)cc1O	> 10 µM	Active	
CCN(CC)CCCNc1cc2nc3n(c(=O)c2cc1F)CC/C3=C\c1ccc(C(C)C)cc1O	4.2 µM		

Second part, led by results:

IC50 [1]	Inhibition (active/not active) [2]	SMILES	also measured
3.2 µM		CCc1ccc(/C=C2\CCn3c2nc2cc(NCCN(CC)CC)c(F)cc2c3=O)cc1	
2.7 µM		CCN(CC)CCNc1cc2nc3n(c(=O)c2cc1F)CC/C3=C\c1ccc(C(C)(C)C)cc1	Activity [3]: Active; inhibition [4]: Active; inhibition [5]: Active
2.1 µM		CCN(CC)CCNc1cc2nc3n(c(=O)c2cc1F)CC/C3=C\c1ccc(N(CC)CC)cc1O	IC50 [6]: > 20 µM; Activity [3]: Active; inhibition [4]: Active; inhibition [5]: inactive
1.3 µM		CCN(CC)CCNc1ccc2c(=O)n3c(nc2c1)/C(=C/c1ccc(C(C)C)cc1)CC3	
2.8 µM		CC(C)c1ccc(/C=C2\CCn3c2nc2cc(NCCN(C)C)c(F)cc2c3=O)cc1	IC50 [6]: > 20 µM; Activity [3]: Active; inhibition [4]: Active; inhibition [5]: inactive
2 µM		CCN(CC)CCNc1cc2nc3n(c(=O)c2cc1F)CC/C3=C\c1ccc(C(C)C)cc1	Activity [3]: Active; inhibition [4]: Active; inhibition [5]: Active
1.8 µM		CCN(CC)CCCCNc1cc2nc3n(c(=O)c2cc1F)CC/C3=C\c1ccc(C(C)C)cc1	
2.2 µM		CCN(CC)CCNc1cc2nc(/C=C/c3ccc(C(C)C)cc3)n(C)c(=O)c2cc1F	Activity [3]: Active; inhibition [4]: Active; inhibition [5]: inactive
4 µM		CCN(CC)CCNc1cc2nc3n(c(=O)c2cc1F)CC/C3=C\c1ccc(C(C)C)cc1O	
3.6 µM		CCN(CC)CCCNc1cc2nc(/C=C/c3ccc(C(C)C)cc3)n(CC(C)C)c(=O)c2cc1F	
3.1 µM		CCN(CC)CCNc1cc2nc3n(c(=O)c2cc1F)CC/C3=C\c1ccc(CC(C)C)cc1	
1.5 µM		CCN(CC)CCCNc1cc2nc3n(c(=O)c2cc1F)CC/C3=C\c1ccc(C(C)C)cc1	Activity [7]: Active; Activity [8]: Active; Activity [9]: Active; inhibition [4]: Active; Activity [10]: Active; Activity [11]: Active; inhibition [12]: Active; inhibition [13]: Active
3.3 µM		CCCc1ccc(/C=C2\CCn3c2nc2cc(NCCN(CC)CC)c(F)cc2c3=O)cc1	
2.8 µM		CCN(CC)CCCNc1cc2nc(/C=C/c3ccc(C(C)C)cc3)n(CC)c(=O)c2cc1F	
